We go through seven molecules from patent US7794934B2, “Predicting negative symptom change during drug treatment” (Centre for Addiction and Mental Health, priority 2006, dated 2010).

Read-outs that look alike come from different tables or passages of the source.

Assay [1] deals with patients with schizophrenia. The settings on record: cited from earlier work.
The test system of the next assay is NMDA receptors. Conditions: Wang and Liang 1998; cited from earlier work.
The test system of the next assay is schizophrenic subjects. Briefly: Negative symptom improvement (SADSneg subscale) over six months of clozapine treatment, by GRIN2B T5988C genotype. In kind it is in vivo, human. Conditions: after six months of clozapine treatment, baseline as covariate. On the procedure:
Our sample consisted of 90 schizophrenic subjects treated with clozapine. The majority of the patients were Caucasian. The second most represented ethnicity was African American. The ratio of males to females was approximately 2.5:1. The overall response to clozapine treatment over six months was assessed using the Brief Psychiatric Rating Scale (BPRS) and the Schedule for Affective Disorders and Schizophrenia (SADS). The sample is composed of a group of patients from the Cleveland area (obtained from Dr. H. Y Meltzer, Case Western Reserve University), as part of a multisite coordinated clinical trial of clozapine response. Data on the specific assessment of negative symptom improvement in response to clozapine treatment were collected over a six month period (baseline minus 6 month score). Negative symptom improvement over a period of six months was assessed using the Brief Psychiatric Rating Scale subscale for negative symptoms (BPRSneg), and the Schedule for Affective Disorders and Schizophrenia subscale for negative symptoms (SADSneg).
Analysis of Covariance (ANCOVA) was performed in order to test the effect of genotype on negative symptom improvement as measured by the SADSneg subscale. The baseline score for the SADSneg, assessed before the clozapine treatment was started, was used as a covariate, in part to control for regression to the mean effects.

Assay [2] has as its system neurotoxicity induced by NMDA receptor antagonists. The settings on record: Farber 1993, 1996; Olney 1994; cited from earlier work.
In assay [3] the test system is NMDA-receptor-mediated neurotransmission. Conditions: Arvanov et al. 1997; cited from earlier work.
The next assay concerns NMDA receptor. The settings on record: at therapeutic levels (Lidsky et al. 1993); cited from earlier work.
Assay [4] has as its target glycine binding site associated with the NMDAR complex (Homo sapiens, UniProt Q05586). Conditions: cited from earlier work.
The test system of assay [5] is PCP-induced social withdrawal. The settings on record: rats (Corbett et al. 1995); cited from earlier work.
Where [6] appears, read: added to conventional antipsychotics.

On to `N[C@@H]1CONC1=O` [D-cycloserine], for which the “effect on negative symptoms” value in assay [1] (added to clozapine) is on record as “worsening of negative symptoms”. Also, in assay [1] (setting [6]), the “effect on negative symptoms” value was “significantly improved” and the “performance on a cognitive battery” value is reported as “did not improve”.
As to `COc1cccc([C@H](O)C2CCN(CCc3ccc(F)cc3)CC2)c1OC` [M100907], in the assay with NMDA receptors, the “prevention of PCP-induced blockade of NMDA receptors” value is “prevented”.
For the molecule `CN1CCN(C2=Nc3cc(Cl)ccc3Nc3ccccc32)CC1` [clozapine], the results for the “SADSneg mean (mean converted change score, baseline minus 6 month score)” value with schizophrenic subjects (GRIN2B 5988 C C genotype), in the assay with schizophrenic subjects (GRIN2B 5988 C T genotype) and in the assay on schizophrenic subjects (GRIN2B 5988 T T genotype) were 1.3, 1.26 and 1.87, respectively.
Consider `CN1CCN(C2=Nc3cc(F)ccc3Cc3ccccc32)CC1` [fluperlapine], for which the “prevention of neurotoxicity induced by NMDA receptor antagonists” value (“prevention of neurotoxicity induced” below) in assay [2] is recorded as “strongly prevented”.
Regarding `O=C(CCCN1CCC(O)(c2ccc(Cl)cc2)CC1)c1ccc(F)cc1` [haloperidol], in assay [3], the “enhancement of NMDA-receptor-mediated neurotransmission” value was “not”. For the same molecule, in the assay on NMDA receptor, the “displacement of the ligand [3H]MK801 from the NMDA receptor” value is on record as “not”. In assay [4] (Lidsky et al. 1997), the “mode of action at the glycine binding site associated with the NMDAR complex” value is “partial agonist”. Besides, the “effect on NMDA receptor activity” value in assay [4] (in the absence of glycine (Lidsky et al. 1997)) is “augmented”. In addition, the “prevention of neurotoxicity induced” value in assay [2] is “intermediate effectiveness”. For the same molecule, the “reversal of PCP-induced social withdrawal” value in assay [5] is listed as “not”.
As to `Cc1nc2n(c(=O)c1CCN1CCC(c3noc4cc(F)ccc34)CC1)CCCC2` [risperidone], in assay [5], the “reversal of PCP-induced social withdrawal” value is “not”.
As for `CSc1ccc2c(c1)N(CCC1CCCCN1C)c1ccccc1S2` (stereo not shown) [thioridazine], the “prevention of neurotoxicity induced” value in assay [2] was “intermediate effectiveness”.
